Measured values as given in patent publication US8669378B2, “Process for synthesizing epicconone analogs” (Universite de Rouen, priority 2009, dated 2014).

Assays:
[1] = Absorbance of the adducts with butylamine in acetonitrile; type: physicochemical; conditions: Bioconjugated molecule (BuNH2) in CH3CN; for λ UV (nm), second maximum: longer-wavelength absorption maximum, used for excitation; for λ UV (nm), first maximum: shorter-wavelength absorption maximum
Description: (§1) Apparatus: • Acetonitrile: VWR HPLC quality • Micropipette: 5 μl, 10 μl, 200 μl, 1000 μl, • Eppendorf: Safe lock tube PCR • UV cuvette: Varian-Quartz 10 mm thick • Fluorescence cuvette: Hellma-Quartz 10 mm thick • Vortex: Bender & Hobein-Genie 2 • Centrifuge: Baky Bug • Absorbance spectrophotometer: Varian-Cary 50 scan • Fluorescence spectrophotometer: Varian-Cary Eclipse • Thermostated bath: Varian-Cary single cell peltier accessory Stock Solution:
(§2) Approximately exactly 1 to 2 mg of compound Ia-Io are weighed out in a 1.5 mL Eppendorf tube. The stock solutions are then prepared by adding exactly 1 mL of acetonitrile and the Eppendorf tubes are then stored protected from light.
30 μl of stock solution are placed in a 1.5 mL Eppendorf tube. At room temperature, 10 μl (or 30 μl in the case of Ik) of a 0.15 M solution of butylamine/acetonitrile are added and the medium is stirred by vortex and then centrifuged. After diluting to 1 mL by adding 960 μl of acetonitrile (or 940 μl in the case of Ik), the clear solution is transferred into a UV cuvette and then made up to 2 mL with acetonitrile. The analysis is then performed after producing a “blank” spectrum with a pure acetonitrile solution.

[2] = Photobleaching of stained standard proteins in gel under UV transilluminator; type: physicochemical; conditions: protein-stained gel, first-order exponential decay fit, deduced from FIG. 1
Description: The compounds were dissolved at 10 mg/mL in DMSO. The stock solutions obtained were diluted to 1 mg/mL in water and divided into 100 μL aliquots for storage. All the products and aliquots were stored at −80° C.
Standard proteins (SDS labeling kit-low molecular weight sold by GE, 17-0446-01) were diluted in an LDS buffer (250 μL Invitrogen 4×LDS buffer, 100 μL of 1 M DDT, 650 μL of water) to create serial dilutions ranging from 128 ng/STI band to 125 pg/STI band.
5 μL of each protein solution were loaded onto NuPAGE® Novex® 12% bis-tris gels (1.0 mm thick, 12 wells, Invitrogen NP0342BOX). The gels were subjected to a current of 150 V for approximately 65 minutes using MES buffer (50 mM MES, 50 mM tris, 1 mM EDTA, 0.1% SDS, pH 7.3) so that the buffer front arrives just up to the gel. After eluting the dye, the gels were fixed for 1 to 17 hours (100 mL of fixing solution with 15% EtOH (v/v) and 1% citric acid) in individual lanes. The fixing solution used was replaced with fresh solution one hour after staining. The gels were stained for 1 hour in 50 mL of sodium borate buffer at 100 mM (pH 10.9) containing either […] of LavaPurple gel dye (Fluorotechnics; LP-011005) or one of the test compounds (50 μL for a 1 mg/mL solution). The gels were treated with 100 mL of 15% ethanol and then washed with 100 mL of fixing solution for 30 minutes.
Imaging was performed using a Typhoon Trio imager (excitation: 532 nm, emission filter: 610BP30, 540 PMT, resolution: 100 μm) using a normal sensitivity. The recorded image corresponds to the scan at time zero. The gels were then placed in a UV transilluminator for 60, 146, 240, 330, 630 and 990 seconds (total exposure time), a Typhoon scanner image being recorded between each exposure. The volumes of the bands were analyzed using the Image-Quant TL software, and all the band volumes were normalized with phosphorylase B. The photobleaching was analyzed by graphically representing the band volumes as a function of the exposure time (GraphPad Prism v4 software) and by fitting the curve to a first-order exponential decay to determine a pseudofirst-order rate constant.
FIG. 1 represents the decrease of the normalized residual signal of compounds (Ii), (Ij), (Ik), (In) and (Io) according to the invention and of epicocconone.
From this FIGURE, the half-life times of the compounds may be deduced: […]

[3] = Fluorescence of the adducts with butylamine in acetonitrile; type: physicochemical; set-up: Δ Stokes: unit not given here; conditions: Bioconjugated molecule (BuNH2) in CH3CN; for Δ Stokes: emission minus excitation wavelength; for λ fluo (λ excitation) (nm): excitation at maximum-absorption wavelength; for Intensity normalized to 50 μM: fluorescence intensity
Description: as §1, §2
Two protocols were implemented for the fluorescence tests. • For compounds Ii-Ik: 125 μL of the preceding solution (absorbance solution) are diluted to 1.25 mL by adding 1125 μl of acetonitrile to a fluorescence cuvette. The analysis is then performed on the fluorescence spectrophotometer by excitation at the respective maximum-absorption wavelengths. • For compounds Ia-Ih and Il-Io: 1250 μl of the preceding solution (absorbance) are placed in a fluorescence cuvette. The analysis is then performed on the fluorescence spectrophotometer by excitation at the respective maximum-absorption wavelengths.

[4] = cited from earlier work
[5] = water and lipid bilayers; cited from earlier work

| λ UV (nm), second maximum [1] | λ UV (nm), first maximum [1] | Half-life time [2] | Δ Stokes [3] | λ fluo (λ excitation) (nm) [3] | Intensity normalized to 50 μM [3] | SMILES | fluorescence emission wavelength of enamine adduct ([4]; adduct with amine functions, UV-Vis radiation, for example at 395 nm or 520 nm) | Stokes shift ([4]; difference between absorption and emission wavelength) | solubility [5] |
| --- | --- | --- | --- | --- | --- | --- | --- | --- | --- |
| 512 nm | 365 nm | 22.4 min | 94 | 606 nm | 4157 | CC1(C)CC2=CC3=C(C(=O)/C=C(\O)c4ccccc4)C(=O)OC3(C)C(=O)C2=CO1 (stereo not drawn) [Ik, (Z)-3-(3-hydroxy-3-phenylacryloyl)-6,6,9a-trimethyl-5,6-dihydro-9aH-furo[3,2-g]isochromene-2,9-dione] | – | – | – |
| 520 nm | 364 nm | 44.7 min | 89 | 609 nm | 4320 | CC1(C)CC2=CC3=C(C(=O)/C=C(\O)c4ccc5ccccc5c4)C(=O)OC3(C)C(=O)C2=CO1 (stereo not drawn) [Io, 3-(1-hydroxy-3-naphtalen-2-yl-3-oxopropenyl)-6,6,9a-trimethyl-5,6-dihydro-9aH-furo[3,2-g]isochromene-2,9-dione] | – | – | – |
| 515 nm | 388 nm | 11.3 min | 95 | 610 nm | 3950 | C/C=C/C=C/C=C/C(=O)/C=C(\O)C1=C2C=C3C[C@@H](CO)OC=C3C(=O)[C@@]2(C)OC1=O [epicocconone, 5,6-dihydro-3-[(1Z,4E,6E,8E)-1-hydroxy-3-oxo-1,4,6,8-decatetraenyl]-6-hydroxymethyl-9a-methyl-2H-furo[3,2g][2]benzopyran-2,9-(9aH)-dione, reference compound] | about 600 nm | about 100 nm | good solubility both in water and in lipid bilayers |

Second part, the compound before the results:

| SMILES | λ UV (nm), second maximum [1] | λ UV (nm), first maximum [1] | Half-life time [2] | Δ Stokes [3] | λ fluo (λ excitation) (nm) [3] | Intensity normalized to 50 μM [3] | fluorescence emission wavelength of enamine adduct ([4]; adduct with amine functions, UV-Vis radiation, for example at 395 nm or 520 nm) | Stokes shift ([4]; difference between absorption and emission wavelength) | solubility [5] |
| --- | --- | --- | --- | --- | --- | --- | --- | --- | --- |
| COc1ccc(/C(O)=C/C(=O)C2=C3C=C4CC(C)OC=C4C(=O)C3(C)OC2=O)cc1 (stereo not drawn) [Ii, (Z)-3-(3-hydroxy-3-(4-methoxyphenyl)acryloyl)-6,9a-dimethyl-5,6-dihydro-9aH-furo[3,2-g]isochromene-2,9-dione] | 497 nm | 366 nm | 18.3 min | 99 | 596 nm | 3020 | – | – | – |
| COc1ccc(/C(O)=C/C(=O)C2=C3C=C4CC(C)(C)OC=C4C(=O)C3(C)OC2=O)cc1 (stereo not drawn) [Ij, (Z)-3-(3-hydroxy-3-(4-methoxyphenyl)acryloyl)-6,6,9a-trimethyl-5,6-dihydro-9aH-furo[3,2-g]isochromene-2,9-dione] | 505 nm | 366 nm | 6.6 min | 98 | 603 nm | 3988 | – | – | – |
| CC1(C)CC2=CC3=C(/C(O)=C/C(=O)c4ccc(Cl)nc4)C(=O)OC3(C)C(=O)C2=CO1 (stereo not drawn) [In, 3-[3-(6-chloro-pyridin-3-yl)-1-hydroxy-3-oxopropenyl]-6,6,9a-trimethyl-5,6-dihydro-9aH-furo[3,2-g]isochromene-2,9-dione] | 525 nm | 363 nm | 33.1 min | 87 | 612 nm | 2764 | – | – | – |
